Experimental data as given in BindingDB's records for patent US20260042753 (Merck Patent, 2026).

Tested on: Mast/stem cell growth factor receptor Kit [V654A]
Test: c-Kit(V654A) Assay
Description: c-Kit(V654A) (N-terminal GST-tagged, recombinant human c-Kit, amino acids 544-end containing the V654A mutation) is incubated with 8 mM MOPS pH 7.0, 0.2 mM EDTA, 250 μM GGMEDIYEFMGGKKK, 10 mM MgAcetate and [gamma-33P-ATP](specific activity approx. 500 cpm/pmol, concentration 200 μM). The reaction is initiated by the addition of the MgATP mix. After incubation for 40 minutes at room temperature, the reaction is stopped by the addition of 3% phosphoric acid solution. 10 μL of the reaction is then spotted onto a P30 filtermat and washed three times for 5 minutes in 75 mM phosphoric acid and once in methanol prior to drying and scintillation counting.

Row | SMILES | IC50 [nM]
1 | COCCOc1cc2[nH]nc(-c3cc(-c4ccc(C(=O)N5CC[C@@H]6CNC(=O)[C@@H]65)cc4)no3)c2cc1F (relative stereo) [US20260042753, Compound A89] | 0.57
2 | COCCOc1cc2[nH]nc(-c3cc(-c4ccc(N5CC[C@H]6[C@H]5CCN6C)cc4)no3)c2cc1F (relative stereo) [US20260042753, Compound A126] | 1.7
3 | COCCOc1cc2[nH]nc(-c3cc(-c4ccc(C(=O)N5C[C@@H]6CC(=O)N[C@@H]6C5)cc4)no3)c2cc1F (relative stereo) [US20260042753, Compound A203] | 1.4
4 | COCCOc1cc2[nH]nc(-c3cc(-c4ccc(C(=O)N5C[C@H]6CCOC[C@H]6C5)cc4)no3)c2cc1F (relative stereo) [US20260042753, Compound A214] | 0.44
5 | COCCOc1cc2[nH]nc(-c3cc(-c4ccc(C(=O)N5CC[C@H]6COC[C@H]6C5)cc4)no3)c2cc1F (relative stereo) [US20260042753, Compound A215] | 0.76
6 | COCCNC(=O)c1ccc(-c2cc(-c3n[nH]c4cc(C(=O)NCCOC)ccc34)on2)cc1 [US20260042753, Compound A23] | 10
7 | COCCOc1cc2[nH]nc(-c3cc(-c4ccc([SH2+]([O-])C=N)cc4)no3)c2cc1F [US20260042753, Compound A226] | 2
